Assay results reported in publication PMC9481570, “A small molecule antagonist of SMN disrupts the interaction between SMN and RNAP II” (Nature Communications, 2022).

Biological target: T1, tandem Tudor domain (TTD) of UHRF1 (Homo sapiens, UniProt Q96T88)
T1 construct: UHRF1 (aa 126–285); His (N, cleaved yes); made in house; host or cells: E. coli BL21 (DE3) Codon plus RIL
Assay: Fluorescein polarization-based peptide displacement screen
Format: binding
Conditions: 2 mM compound, 8 μM UHRF1 TTD, 40 nM FITC-H3K9me3 peptide; hit = signal less than 50% of negative control
Procedure: A small molecule fragment library with 2040 compounds was screened against TTD of UHRF1 by fluorescein polarization-based peptide displacement assay according to previous reports. Briefly, the screening was performed in 10 μL at a protein concentration of 8 μM premixed with a 40 nM FITC-labeled H3K9me3 peptide (aa 1–25, Tufts University Core Services), and then adding a single concentration of 2 mM compound in a buffer of 20 mM Tris-HCl, pH 8.8, 50 mM NaCl, and 0.01% Triton X-100. The hits were further confirmed by dose response analysis with 1 mM as the highest concentration with 11 sequential 2-fold dilutions. All the assays were performed in duplicate in 384-well plates (Greiner, 784290), using the Synergy 4 microplate reader (BioTek), with an excitation wavelength of 485 nm and an emission wavelength of 528 nm. Data were corrected by background of the free labeled peptides and analyzed by GraphPad Prism version 5 software. […]
Tris -HCl, pH 8.8, 50 mM NaC l, and 0.01% Triton X - 100. […] All the assays were performed in duplicate in 384 -well plates (Greiner, 784290), usi ng the Synergy 4 microplate reader (BioTek), with an excitation wavelength of 485 nm and an emission wavelength of 528 nm. Data were corrected by background of the free labeled peptides and analyzed by GraphPad […]
Detection instrument and software Synergy 4 microplate reader (BioTek), GraphPad […]

T1 sequence (Q96T88 126-285): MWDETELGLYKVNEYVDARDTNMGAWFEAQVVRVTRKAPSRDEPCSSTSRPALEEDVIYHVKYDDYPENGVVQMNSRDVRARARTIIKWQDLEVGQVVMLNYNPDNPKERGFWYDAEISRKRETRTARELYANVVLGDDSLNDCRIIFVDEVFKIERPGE

For `Cn1c2c(c(=N)c3c1CCC3)CCC2` [Compound 1, 4-methyl-2,3,4,5,6,7-hexahydrodicyclopenta[b,e]pyridin-8(1H)-imine], the “outcome of fragment screen” value was “hit”.
